Test systems include A549; ACHN; COLO 205; EKVX; HCC 2998; HCT-15; M14; MCF7; NCI-H23; NCI-H522; OVCAR-4; OVCAR-5; SF-295; SK-MEL-2; SK-MEL-5; SN12C; U-251; UACC-62; A498; HOP-62.
What all share (assay): NCI-60 cell line screen, 48 h

Structures are written as SMILES.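 Each compound was tested at five concentrations against cells in 96-well plates for 48 hours. The concentration for 50% growth inhibition is given as GI50.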 The source made the active and inactive calls. Cut-off read from the data, not from the text of the source: active = GI50 up to about 1.1 µM and inactive = higher.

For the compound `CCOC(=O)/C(=N/Nc1ccc(Cl)cc1)N1C(=S)N(C)N=C(C)C=C1S`, the GI50 in the assay with A549 was 61.8 µM (inactive); with ACHN, > 100 µM (inactive); in the assay on COLO 205 it was > 100 µM (inactive); with EKVX, 24.3 µM (inactive); in the assay on HCC 2998, > 100 µM (inactive); with HCT-15, more than 100 µM. Besides, the GI50 in the assay on M14 was > 100 µM (inactive); with MCF7, > 100 µM (inactive); with NCI-H23, 39 µM (inactive); in the assay on NCI-H522 it was 22.1 µM (inactive); in the assay on OVCAR-4, > 100 µM (inactive); in the assay with OVCAR-5, > 100 µM (inactive). The GI50 in the assay on SF-295 was 20.5 µM (inactive); with SK-MEL-2 it was 57.7 µM (inactive); with SK-MEL-5, > 100 µM (inactive); with SN12C it was 29.6 µM (inactive); in the assay on U-251, 15.9 µM (inactive); with UACC-62 it was 34.6 µM (inactive).

As for `COc1ccc2c(c1)CCc1cc(OC)ccc1/[N+]([O-])=[N+]\2[O-]`, the GI50 with A498 is 16.2 µM (inactive); in the assay with A549, 26.4 µM (inactive); in the assay on ACHN, 10.8 µM (inactive); in the assay with COLO 205, 14.5 µM (inactive); in the assay on EKVX, 20.8 µM (inactive); with HCC 2998, 30.1 µM (inactive). The GI50 with HCT-15 was 15.6 µM; with HOP-62 it was 21.6 µM (inactive); in the assay with M14, 23 µM (inactive); in the assay on MCF7 it was 9.29 µM (inactive); with NCI-H23 it was 23.1 µM (inactive); in the assay with NCI-H522 it was 5.93 µM (inactive). Moreover, the GI50 in the assay on OVCAR-5 is 23.2 µM (inactive); in the assay on SF-295 it was 19.9 µM (inactive); in the assay with SK-MEL-2 it was 20.9 µM (inactive); in the assay on SK-MEL-5 it was 16.3 µM (inactive); in the assay on SN12C, 16.2 µM (inactive); with U-251, 17.6 µM (inactive). In the assay on UACC-62, the GI50 was 15.8 µM (inactive).

Consider `COc1ccc(-n2cnn3c(=O)c4cn[nH]c4nc23)cc1`, for which the GI50 in the assay on A549, in the assay with ACHN, in the assay with EKVX, in the assay with HCC 2998, in the assay on M14 and in the assay on MCF7 was > 10 µM (inactive) each time. For the same compound, the GI50 in the assay on NCI-H23, in the assay on NCI-H522, in the assay on OVCAR-4, in the assay on OVCAR-5, in the assay with SF-295 and with SK-MEL-5 was > 10 µM (inactive) throughout. In addition, the GI50 in the assay with SN12C and with U-251 was > 10 µM (inactive) in each case.

With `CN(C)CCCCN1CCc2c(n(C)c3ccccc23)C1=O`, the GI50 with A549 was 50.6 µM (inactive); with ACHN, 72.1 µM (inactive); in the assay with COLO 205 it was 18.1 µM (inactive); with EKVX, 36 µM (inactive); in the assay on HCT-15, 27.9 µM; in the assay on HOP-62 it was 38.7 µM (inactive). In addition, the GI50 in the assay with M14 is 18.4 µM (inactive); with MCF7 it was 36.6 µM (inactive); with NCI-H23 it was 54.2 µM (inactive); in the assay on NCI-H522, 33.3 µM (inactive); with SF-295 it was 25.9 µM (inactive); with SK-MEL-2, 20 µM (inactive). Besides, the GI50 with SK-MEL-5 was 17.7 µM (inactive); in the assay on SN12C, 42 µM (inactive); with UACC-62 it was 17.3 µM (inactive).

Consider `COc1cc(Nc2nc3ccc(C(F)(F)F)cc3nc2C(=O)O)cc(OC)c1OC`, for which the GI50 in the assay on A549 was 33.3 µM (inactive); in the assay with ACHN, 27.4 µM (inactive); in the assay with COLO 205, 19.8 µM (inactive); in the assay with EKVX, 34.9 µM (inactive); in the assay on HCC 2998, 18.6 µM (inactive); in the assay with HCT-15 it was 18.2 µM. Also, the GI50 is 18.2 µM (inactive) in the assay with HOP-62; 30 µM (inactive) in the assay on M14; 26.2 µM (inactive) with MCF7; 27.8 µM (inactive) with NCI-H23; 21.4 µM (inactive) in the assay on NCI-H522; 15.1 µM (inactive) in the assay on OVCAR-4. Further, the GI50 with OVCAR-5 is 36.1 µM (inactive); in the assay on SF-295, 27.1 µM (inactive); in the assay with SK-MEL-2, 21.8 µM (inactive); in the assay with SK-MEL-5, 34.4 µM (inactive); in the assay on SN12C, 14.4 µM (inactive); with U-251 it was 19 µM (inactive). Besides, the GI50 with UACC-62 was 18.6 µM (inactive).

As to `O=C(CCC(=O)Nc1ccccc1C(F)(F)F)N/N=C1\C(=N\NC(=O)CCC(=O)Nc2ccccc2C(F)(F)F)C(c2ccc3c(c2)OCO3)Oc2ccccc21` (centres undefined), the GI50 was 51.3 µM (inactive) in the assay with A498; 7.16 µM (inactive) in the assay with A549; 6.46 µM (inactive) in the assay on ACHN; > 100 µM (inactive) with COLO 205; 9.79 µM (inactive) with EKVX; > 100 µM (inactive) in the assay with HCC 2998. Also, the GI50 in the assay with HCT-15 was 5.33 µM; in the assay with HOP-62, 4.28 µM (inactive); with M14, > 100 µM (inactive); in the assay with NCI-H23, 22.8 µM (inactive); in the assay with NCI-H522 it was 4.74 µM (inactive); in the assay on OVCAR-4, 9.95 µM (inactive). Further, the GI50 is > 100 µM (inactive) with OVCAR-5; 8.32 µM (inactive) in the assay on SF-295; > 31.9 µM (inactive) in the assay on SK-MEL-2; 7.74 µM (inactive) in the assay on SK-MEL-5; 6.46 µM (inactive) in the assay on SN12C; 4.97 µM (inactive) with U-251. For the same compound, the GI50 in the assay with UACC-62 is 5.46 µM (inactive).

Consider `COc1ccc(C23C(=O)c4ccccc4N2O[C@H]2C(=O)N(c4ccccc4)C(=O)[C@H]23)cc1` (some centres undefined), for which the GI50 in the assay on A498, in the assay on A549, in the assay with ACHN, with COLO 205, in the assay with EKVX and in the assay with HCC 2998 was > 100 µM (inactive) each time. Moreover, the GI50 was more than 100 µM in the assay with HCT-15; > 100 µM (inactive) in the assay on HOP-62; > 100 µM (inactive) with M14; > 100 µM (inactive) in the assay with NCI-H23; 14 µM (inactive) in the assay with NCI-H522; > 100 µM (inactive) with OVCAR-4. The GI50 in the assay with OVCAR-5, in the assay on SF-295, with SK-MEL-2, in the assay with SK-MEL-5, in the assay on SN12C and in the assay on U-251 was > 100 µM (inactive) in each case. Moreover, in the assay on UACC-62, the GI50 was > 100 µM (inactive).

On to `COc1ccc2cc(/C=N/NC(=O)Nc3ccccc3)ccc2c1`, for which the GI50 in the assay on A498 was > 100 µM (inactive); in the assay with COLO 205 it was > 100 µM (inactive); in the assay on HCC 2998, > 100 µM (inactive); in the assay on HCT-15, more than 100 µM; in the assay with HOP-62, > 100 µM (inactive); with M14 it was > 100 µM (inactive). In addition, the GI50 in the assay with MCF7, in the assay on NCI-H23, with OVCAR-4, with OVCAR-5, with SF-295 and with SK-MEL-2 was > 100 µM (inactive) in each case. For the same compound, the GI50 with SK-MEL-5, in the assay with SN12C, in the assay with U-251 and in the assay with UACC-62 was > 100 µM (inactive) in each case.

For the compound `COC(=O)C1=C(C(=O)OC)C(N(C)C)C(C(=O)OC)=C(C(=O)OC)S1`, the GI50 in the assay with A498 was > 100 µM (inactive); with A549, > 100 µM (inactive); in the assay with ACHN it was > 100 µM (inactive); in the assay with COLO 205, > 100 µM (inactive); in the assay with HCC 2998, > 100 µM (inactive); with HCT-15 it was more than 100 µM. The GI50 with HOP-62, with M14, in the assay with MCF7, with NCI-H23, with OVCAR-4 and in the assay on OVCAR-5 was > 100 µM (inactive) throughout. Besides, the GI50 in the assay on SF-295, in the assay on SK-MEL-2, in the assay on SN12C, with U-251 and with UACC-62 was > 100 µM (inactive) in each case.

Regarding `O=C(O)c1cc2c3c(c1)[C@H]1C=CC[C@H]1CN3CC1CC=CC21` (some centres undefined), the GI50 in the assay on A498, in the assay with A549, in the assay with ACHN, in the assay on COLO 205, in the assay on EKVX and in the assay with HCC 2998 was > 100 µM (inactive) throughout. Further, the GI50 is more than 100 µM with HCT-15; > 100 µM (inactive) in the assay with HOP-62; > 100 µM (inactive) in the assay with M14; > 100 µM (inactive) in the assay with NCI-H23; > 100 µM (inactive) in the assay on NCI-H522; > 100 µM (inactive) in the assay with OVCAR-4. Further, the GI50 with OVCAR-5, with SF-295, with SK-MEL-2, in the assay with SK-MEL-5, with SN12C and in the assay with U-251 was > 100 µM (inactive) each time. Further, the GI50 in the assay on UACC-62 is > 100 µM (inactive).

Take `CS(=O)(=O)OCC1=C(COS(C)(=O)=O)C(=O)c2c(O)ccc(O)c2C1=O`: the GI50 in the assay on A498, with A549, in the assay with ACHN, in the assay with COLO 205, in the assay with EKVX and in the assay on HCC 2998 was > 100 µM (inactive) in each case. Also, the GI50 with HCT-15 is more than 100 µM; in the assay on HOP-62 it was > 100 µM (inactive); in the assay with M14, > 100 µM (inactive); with NCI-H23, > 100 µM (inactive); in the assay with NCI-H522 it was > 100 µM (inactive); in the assay with OVCAR-4, > 100 µM (inactive). Also, the GI50 with OVCAR-5, in the assay on SF-295, in the assay with SK-MEL-2, with SK-MEL-5, with SN12C and with U-251 was > 100 µM (inactive) in each case. Further, the GI50 in the assay with UACC-62 is > 100 µM (inactive).

For the origin of these results see ChEMBL document CHEMBL1201862, “PubChem BioAssay data set” (2004).
